Drawing on US10745384B2, “Indazole derivatives as αv integrin antagonists” (BRISTOL-MYERS SQUIBB COMPANY, priority 2016, dated 2020), this text covers IC50 for 29 compounds.

Structures are written as SMILES. Structures can show the parent of a compound that is named as a salt.

In this assay the target is T1, human αVβ6 (Homo sapiens, UniProt P06756+P18564).
T1 construct: purchased R & D systems 3817-AV
T1 sequence (P06756 31-992 limits assumed): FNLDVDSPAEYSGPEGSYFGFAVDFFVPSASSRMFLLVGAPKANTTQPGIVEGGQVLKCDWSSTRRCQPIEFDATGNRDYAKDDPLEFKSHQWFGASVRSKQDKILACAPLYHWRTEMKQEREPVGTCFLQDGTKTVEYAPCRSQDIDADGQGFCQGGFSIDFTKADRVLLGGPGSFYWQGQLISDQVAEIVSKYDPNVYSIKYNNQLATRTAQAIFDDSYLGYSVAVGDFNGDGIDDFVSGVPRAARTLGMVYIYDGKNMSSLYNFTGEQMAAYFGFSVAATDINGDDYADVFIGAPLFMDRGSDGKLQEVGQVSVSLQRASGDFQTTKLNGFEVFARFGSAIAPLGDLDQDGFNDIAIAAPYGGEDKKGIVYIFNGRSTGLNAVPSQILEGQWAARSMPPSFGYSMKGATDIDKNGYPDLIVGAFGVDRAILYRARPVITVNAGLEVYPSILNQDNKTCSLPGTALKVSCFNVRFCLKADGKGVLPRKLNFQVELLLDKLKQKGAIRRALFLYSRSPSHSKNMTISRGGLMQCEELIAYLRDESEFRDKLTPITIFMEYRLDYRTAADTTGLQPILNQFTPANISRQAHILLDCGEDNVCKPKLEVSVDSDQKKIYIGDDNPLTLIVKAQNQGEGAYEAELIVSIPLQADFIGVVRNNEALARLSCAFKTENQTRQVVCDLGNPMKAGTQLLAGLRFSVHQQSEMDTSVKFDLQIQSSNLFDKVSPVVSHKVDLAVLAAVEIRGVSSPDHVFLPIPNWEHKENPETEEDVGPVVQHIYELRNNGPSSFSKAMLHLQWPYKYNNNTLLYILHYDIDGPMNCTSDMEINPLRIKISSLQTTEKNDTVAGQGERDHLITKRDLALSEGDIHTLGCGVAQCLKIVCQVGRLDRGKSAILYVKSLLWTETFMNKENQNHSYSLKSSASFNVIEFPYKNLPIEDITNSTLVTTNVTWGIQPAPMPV
T1 sequence (P18564 22-707 limits assumed): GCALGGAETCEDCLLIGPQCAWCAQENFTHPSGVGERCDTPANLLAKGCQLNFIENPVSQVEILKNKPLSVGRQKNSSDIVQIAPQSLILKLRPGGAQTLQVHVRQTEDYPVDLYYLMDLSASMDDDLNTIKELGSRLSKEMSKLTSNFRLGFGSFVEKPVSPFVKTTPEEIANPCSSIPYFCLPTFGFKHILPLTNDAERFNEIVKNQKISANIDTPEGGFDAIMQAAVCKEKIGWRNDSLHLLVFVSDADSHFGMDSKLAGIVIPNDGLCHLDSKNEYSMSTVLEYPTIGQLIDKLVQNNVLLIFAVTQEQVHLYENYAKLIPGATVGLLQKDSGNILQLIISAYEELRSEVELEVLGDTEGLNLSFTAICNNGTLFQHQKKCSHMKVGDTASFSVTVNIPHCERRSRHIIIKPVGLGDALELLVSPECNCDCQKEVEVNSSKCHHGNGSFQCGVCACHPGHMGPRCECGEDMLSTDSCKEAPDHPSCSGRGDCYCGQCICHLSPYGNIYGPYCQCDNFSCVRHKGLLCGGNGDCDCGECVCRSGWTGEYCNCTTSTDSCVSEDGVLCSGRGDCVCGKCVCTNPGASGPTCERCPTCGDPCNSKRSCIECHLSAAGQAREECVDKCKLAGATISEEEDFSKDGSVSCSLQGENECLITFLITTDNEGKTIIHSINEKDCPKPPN
The assay can be described thus: human αVβ6 HTRF binding assay. The note with it: recombinant human αVβ6 integrin, FITC-conjugated fibronectin. In short, it runs like this:
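HTRF binding in 20 mM Tris pH 7.4 with 1 mM MgCl2, 1 mM MnCl2, 0.01% Tween 20 and 0.01% BSA. For αVβ6, biotinylated integrin (1.25 nM) and FITC-fibronectin (5 nM) were incubated 1 h at RT, then streptavidin-terbium (0.625 nM) was added overnight in the dark. An SPA-based fibronectin binding format was an alternative.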
For orientation: IC50 means the concentration at which inhibition is half-maximal. As for `O=C(O)CC1(n2ncc3cc(OCCc4ccc5c(n4)NCCC5)ccc32)CC1` [Example 76, 2-(1-(5-(2-(5,6,7,8-tetrahydro-1,8-naphthyridin-2-yl)elhoxy)-1H-indazol-1-yl)cyclopropyl)acetic acid, TFA], the half-inhibitory concentration (IC50) worked out at 3.4 µM.

`O=C(O)CC(Cc1ccc(F)cc1)n1ncc2cc(OCCc3ccc4c(n3)NCCC4)ccc21` (centres unmarked) [Example 78, 4-(4-Fluorophenyl)-3-(5-(2-(5,6,7,8-tetrahydro-1,8-naphthyridin-2-yl)ethoxy)-1H-indazol-1-yl)butanoic acid, TFA]: the 50% inhibitory concentration (IC50) was determined as 0.804 µM.

With `COc1cnc(C(CC(=O)O)n2ncc3cc(OCCc4ccc5c(n4)NCCC5)ccc32)cn1` (centres unmarked) [Example 79, 3-(5-Methoxypyrazin-2-yl)-3-(5-(2-(5,6,7,8-tetrahydro-1,8-naphthyridin-2-yl)ethoxy)-1H-indazol-1-yl)propanoic acid, TFA], the half-maximal inhibitory concentration (IC50) is 0.033 µM.

`O=C(O)CC(c1ccc2nccnc2c1)n1ncc2cc(OCCc3ccc4c(n3)NCCC4)ccc21` (centres unmarked) [Example 80, 3-(Quinoxalin-6-yl)-3-(5-(2-(5,6,7,8-tetrahydro-1,8-naphthyridin-2-yl)ethoxy)-1H-indazol-1-yl)propanoic acid, TFA]: the IC50 was 0.013 µM.

Consider `O=C(O)C[C@@H](c1cnc2ccccc2c1)n1cc2ccc(CCc3ccc4c(n3)NCCC4)cc2n1` [Example 81, (S)-3-(Quinolin-3-yl)-3-(6-(2-(5,6,7,8-tetrahydro-1,8-naphthyridin-2-yl)ethyl)-2H-indazol-2-yl)propanoic acid], for which the IC50 came out at 0.0032 µM.

Turning to `Cc1nc2c(cc1Cc1ccc3cn([C@@H](CC(=O)O)c4cnc5ccccc5c4)nc3c1)CCCN2` [Example 82, (S)-3-(6-((2-Methyl-5,6,7,8-tetrahydro-1,8-naphthyridin-3-yl)methyl)-2H-indazol-2-yl)-3-(quinolin-3-yl)propanoic acid], the IC50 worked out at 0.15 µM.

Take `O=C(O)C[C@@H](c1cccc(N2CCCC2=O)c1)n1ncc2cc(OCCc3ccc4c(n3)NCCC4)ccc21` [Example 84, (S)-3-(3-(2-Oxopyrrolidin-1-yl)phenyl)-3-(5-(2-(5,6,7,8-tetrahydro-1,8-naphthyridin-2-yl)ethoxy)-1H-indazol-1-yl)propanoic acid, TFA]: the half-inhibitory concentration (IC50) turned out to be 0.12 µM.

Consider `O=C(O)C[C@H](c1cccc(N2CCCC2=O)c1)n1ncc2cc(OCCc3ccc4c(n3)NCCC4)ccc21` [Example 85, (R)-3-(3-(2-Oxopyrrolidin-1-yl)phenyl)-3-(5-(2-(5,6,7,8-tetrahydro-1,8-naphthyridin-2-yl)ethoxy)-1H-indazol-1-yl)propanoic acid, TFA], for which the concentration for half-maximal inhibition (IC50) is 0.0025 µM.

For `COc1ncc(C(CC(=O)O)n2ncc3cc(OCCc4ccc5c(n4)NCCC5)ccc32)cc1F` (centres unmarked) [Example 86, 3-(5-Fluoro-6-methoxypyridin-3-yl)-3-(5-(2-(5,6,7,8-tetrahydro-1,8-naphthyridin-2-yl)ethoxy)-1H-indazol-1-yl)propanoic acid, TFA], the IC50 was 0.0078 µM.

For `O=C(O)C[C@@H](c1cnc2ccccc2c1)n1cc2ccc(CCCC3CCc4cccnc4N3)cc2n1` (stereo partly drawn) [Example 88, (3S)-3-(Quinolin-3-yl)-3-(6-(3-(1,2,3,4-tetrahydro-1,8-naphthyridin-2-yl)propyl)-2H-indazol-2-yl)propanoic acid], the concentration for half-maximal inhibition (IC50) amounted to 0.02 µM.

Turning to `Cc1cc(C(CC(=O)O)n2ncc3cc(OCCc4ccc5c(n4)NCCC5)ccc32)cnc1OCC(C)(C)O` (centres unmarked) [Example 90, 3-(6-(2-Hydroxy-2-methylpropoxy)-5-methylpyridin-3-yl)-3-(5-(2-(5,6,7,8-tetrahydro-1,8-naphthyridin-2-yl)ethoxy)-1H-indazol-1-yl)propanoic acid, TFA], the half-inhibitory concentration (IC50) was 0.0095 µM.

`O=C(O)CC(c1ccc2c(n1)NCCO2)n1ncc2cc(OCCc3ccc4c(n3)NCCC4)ccc21` (centres unmarked) [Example 91, 3-(3,4-Dihydro-2H-pyrido[3,2-b][1,4]oxazin-6-yl)-3-(5-(2-(5,6,7,8-tetrahydro-1,8-naphthyridin-2-yl)ethoxy)-1H-indazol-1-yl)propanoic acid, 2 TFA]: the concentration for half-maximal inhibition (IC50) came to 0.031 µM.

As for `O=C(O)CC(c1ccnc(N2CCCC2=O)c1)n1ncc2cc(OCCc3ccc4c(n3)NCCC4)ccc21` (centres unmarked) [Example 93, 3-(2-(2-Oxopyrrolidin-1-yl)pyridin-4-yl)-3-(5-(2-(5,6,7,8-tetrahydro-1,8-naphthyridin-2-yl)ethoxy)-1H-indazol-1-yl)propanoic acid, TFA], the 50% inhibitory concentration (IC50) came to 0.0081 µM.

Take `O=C(O)CC(c1ccc2cnccc2c1)n1ncc2cc(OCCc3ccc4c(n3)NCCC4)ccc21` (centres unmarked) [Example 94, 3-(Isoquinolin-6-yl)-3-(5-(2-(5,6,7,8-tetrahydro-1,8-naphthyridin-2-yl)ethoxy)-1H-indazol-1-yl) propanoic acid, 2 TFA]: the IC50 was 0.013 µM.

On to `O=C(O)CC(c1ccc2cccnc2n1)n1ncc2cc(OCCc3ccc4c(n3)NCCC4)ccc21` (centres unmarked) [Example 96, 3-(1,8-Naphthyridin-2-yl)-3-(5-(2-(5,6,7,8-tetrahydro-1,8-naphthyridin-2-yl)ethoxy)-1H-indazol-1-yl)propanoic acid, 2 TFA], for which the IC50 was found to be 0.0072 µM.

`O=C(N[C@@H](Cn1cc2cc(OCc3ccc4c(n3)NCCC4)ccc2n1)C(=O)O)OCc1ccccc1` [Example 98, (S)-2-(((Benzyloxy)carbonyl)amino)-3-(5-((5,6,7,8-tetrahydro-1,8-naphthyridin-2-yl)methoxy)-2H-indazol-2-yl)propanoic acid]: the 50% inhibitory concentration (IC50) amounted to 0.16 µM.

Take `O=C(O)C[C@H](c1cncc(CO)c1)n1ncc2cc(OCCc3ccc4c(n3)NCCC4)ccc21` [Example 99, (R)-3-(5-(Hydroxymethyl)pyridin-3-yl)-3-(5-(2-(5,6,7,8-tetrahydro-1,8-naphthyridin-2-yl)ethoxy)-1H-indazol-1-yl)propanoic acid]: the IC50 is 0.34 µM.

On to `O=C(O)CC(c1cnc2c(cnn2C2CCCCO2)c1)n1ncc2cc(OCCc3ccc4c(n3)NCCC4)ccc21` (centres unmarked) [Example 103, 3-(5-(2-(5,6,7,8-tetrahydro-1,8-naphthyridin-2-yl)ethoxy)-1H-indazol-1-yl)-3-(1-(tetrahydro-2H-pyran-2-yl)pyrazolo[3,4-b]pyridin-5-yl)propanoic acid, TFA], for which the half-inhibitory concentration (IC50) turned out to be 0.0054 µM.

As to `CN(C)Cc1cncc(C(CC(=O)O)n2ncc3cc(OCCc4ccc5c(n4)NCCC5)ccc32)c1` (centres unmarked) [Example 105, 3-(5-((Dimethylamino)methyl)pyridin-3-yl)-3-(5-(2-(5,6,7,8-tetrahydro-1,8-naphthyridin-2-yl)ethoxy)-1H-indazol-1-yl)propanoic acid], the half-maximal inhibitory concentration (IC50) is 0.01 µM.

Turning to `CCOc1ncc([C@@H](CC(=O)O)n2ncc3cc(OCCc4ccc5c(n4)NCCC5)ccc32)cn1` [Example 108, (R)-3-(2-Ethoxypyrimidin-5-yl)-3-(5-(2-(5,6,7,8-tetrahydro-1,8-naphthyridin-2-yl)ethoxy)-1H-indazol-1-yl) propanoic acid, TFA], the IC50 stood at 0.39 µM.

In the case of `O=C(O)CC(c1ccc2ncsc2c1)n1ncc2cc(OCCc3ccc4c(n3)NCCC4)ccc21` (centres unmarked) [Example 110, 3-(Benzo[d]thiazol-6-yl)-3-(5-(2-(5,6,7,8-tetrahydro-1,8-naphthyridin-2-yl)ethoxy)-1H-indazol-1-yl)propanoic acid, TFA], the 50% inhibitory concentration (IC50) worked out at 0.019 µM.

`O=C(O)CC(c1cnc(N2CCOCC2)nc1)n1ncc2cc(OCCc3ccc4c(n3)NCCC4)ccc21` (centres unmarked) [Example 111, 3-(2-Morpholinopyrimidin-5-yl)-3-(5-(2-(5,6,7,8-tetrahydro-1,8-naphthyridin-2-yl)ethoxy)-1H-indazol-1-yl)propanoic acid, TFA]: the half-inhibitory concentration (IC50) came to 0.024 µM.

As for `COc1ccc(C(CC(=O)O)n2ncc3cc(OCCc4ccc5c(n4)NCCC5)ccc32)nn1` (centres unmarked) [Example 114, 3-(6-Methoxypyridazin-3-yl)-3-(5-(2-(5,6,7,8-tetrahydro-1,8-naphthyridin-2-yl)ethoxy)-1H-indazol-1-yl)propanoic acid, TFA], the 50% inhibitory concentration (IC50) was found to be 0.0026 µM.

For the compound `O=C(O)CC(c1ccc2nncn2c1)n1ncc2cc(OCCc3ccc4c(n3)NCCC4)ccc21` (centres unmarked) [Example 115, 3-([1,2,4]Triazolo[4,3-a]pyridin-6-yl)-3-(5-(2-(5,6,7,8-tetrahydro-1,8-naphthyridin-2-yl)ethoxy)-1H-indazol-1-yl)propanoic acid], the IC50 was 0.06 µM.

As for `O=C(O)CC(c1ccc2c(n1)NCCC2)n1ncc2cc(OCCc3ccc4c(n3)NCCC4)ccc21` (centres unmarked) [Example 116, 3-(5,6,7,8-Tetrahydro-1,8-naphthyridin-2-yl)-3-(5-(2-(5,6,7,8-tetrahydro-1,8-naphthyridin-2-yl)ethoxy)-1H-indazol-1-yl)propanoic acid, 2 TFA], the IC50 turned out to be 0.0059 µM.

On to `CCN1CCn2c(C(CC(=O)O)n3ncc4cc(OCCc5ccc6c(n5)NCCC6)ccc43)cnc2C1` (centres unmarked) [Example 122, 3-(7-Ethyl-5,6,7,8-tetrahydroimidazo[1,2-a]pyrazin-3-yl)-3-(5-(2-(5,6,7,8-tetrahydro-1,8-naphthyridin-2-yl)ethoxy)-1H-indazol-1-yl)propanoic acid], for which the IC50 was 0.014 µM.

With `CC(C)(C)OC(=O)NCc1cncc(C(CC(=O)O)n2ncc3cc(OCCc4ccc5c(n4)NCCC5)ccc32)c1` (centres unmarked) [Example 123, 3-(5-(((tert-Butoxycarbonyl)amino)methyl)pyridin-3-yl)-3-(5-(2-(5,6,7,8-tetrahydro-1,8-naphthyridin-2-yl)ethoxy)-1H-indazol-1-yl)propanoic acid], the half-inhibitory concentration (IC50) was determined as 0.0055 µM.

Regarding `O=C(O)CC(c1cncc(N2CCOCC2)c1)n1ncc2cc(OCCc3ccc4c(n3)NCCC4)ccc21` (centres unmarked) [Example 124, 3-(5-Morpholinopyridin-3-yl)-3-(5-(2-(5,6,7,8-tetrahydro-1,8-naphthyridin-2-yl)ethoxy)-1H-indazol-1-yl)propanoic acid, 3 TFA], the IC50 turned out to be 0.0019 µM.

Turning to `CS(=O)(=O)c1cncc(C(CC(=O)O)n2ncc3cc(OCCc4ccc5c(n4)NCCC5)ccc32)c1` (centres unmarked) [Example 125, 3-(5-(Methylsulfonyl)pyridin-3-yl)-3-(5-(2-(5,6,7,8-tetrahydro-1,8-naphthyridin-2-yl)ethoxy)-1H-indazol-1-yl)propanoic acid, 2 TFA], the IC50 stood at 0.0047 µM.
